In PubChem BioAssay (NCI):
≈ marks a conversion by molar mass, not a printed value.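 Protocol summary: plate cells (96-well), add compound at 5 concentrations, incubate 48 h, interpolate endpoints linearly. Abbreviation: GI50, concentration required for 50% inhibition of growth. TGI is the concentration that stops growth completely.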

Columns and labels:
Test in all cases: growth of human tumour cells (NCI), 48 h; in the data active = GI50 below about 0.43 µM; inactive = the rest
786-0 renal = test system: 786-0 renal
A549 NSCLC = test system: A549 NSCLC
ACHN renal = test system: ACHN renal
BT-549 breast = test system: BT-549 breast
CAKI-1 renal = test system: CAKI-1 renal
CCRF-CEM leukemia = test system: CCRF-CEM leukemia
COLO 205 colon = test system: COLO 205 colon
DU-145 prostate = test system: DU-145 prostate
EKVX NSCLC = test system: EKVX NSCLC
HCC-2998 colon = test system: HCC-2998 colon
HCT-116 colon = test system: HCT-116 colon
HCT-15 colon = test system: HCT-15 colon
HL-60(TB) leukemia = test system: HL-60(TB) leukemia
HOP-62 NSCLC = test system: HOP-62 NSCLC
HOP-92 NSCLC = test system: HOP-92 NSCLC
HS 578T breast = test system: HS 578T breast
HT29 colon = test system: HT29 colon
IGROV1 ovarian = test system: IGROV1 ovarian
KM12 colon = test system: KM12 colon
LOX IMVI melanoma = test system: LOX IMVI melanoma
M14 melanoma = test system: M14 melanoma
MCF7 breast = test system: MCF7 breast
MDA-MB-231 breast = test system: MDA-MB-231 breast
MDA-MB-435 = test system: MDA-MB-435
MDA-N = test system: MDA-N
MOLT-4 leukemia = test system: MOLT-4 leukemia
NCI-H226 lung = test system: NCI-H226 lung
NCI-H23 lung = test system: NCI-H23 lung
NCI-H460 lung = test system: NCI-H460 lung
NCI-H522 lung = test system: NCI-H522 lung
NCI/ADR-RES ovarian = test system: NCI/ADR-RES ovarian
OVCAR-3 ovarian = test system: OVCAR-3 ovarian
OVCAR-4 ovarian = test system: OVCAR-4 ovarian
OVCAR-5 ovarian = test system: OVCAR-5 ovarian
OVCAR-8 ovarian = test system: OVCAR-8 ovarian
PC-3 prostate = test system: PC-3 prostate
RXF 393 renal = test system: RXF 393 renal
SF-268 CNS = test system: SF-268 CNS
SF-295 CNS = test system: SF-295 CNS
SF-539 CNS = test system: SF-539 CNS
SK-MEL-2 melanoma = test system: SK-MEL-2 melanoma
SK-MEL-28 melanoma = test system: SK-MEL-28 melanoma
SK-MEL-5 melanoma = test system: SK-MEL-5 melanoma
SK-OV-3 ovarian = test system: SK-OV-3 ovarian
SN12C renal = test system: SN12C renal
SNB-19 CNS = test system: SNB-19 CNS
SNB-75 CNS = test system: SNB-75 CNS
SW-620 colon = test system: SW-620 colon
TK-10 renal = test system: TK-10 renal
U251 CNS = test system: U251 CNS
UACC-257 melanoma = test system: UACC-257 melanoma
UACC-62 melanoma = test system: UACC-62 melanoma
UO-31 renal = test system: UO-31 renal
A498 renal = test system: A498 renal
K-562 leukemia = test system: K-562 leukemia
RPMI-8226 leukemia = test system: RPMI-8226 leukemia
SR leukemia = test system: SR leukemia
MALME-3M melanoma = test system: MALME-3M melanoma

CC(=O)C1C(=O)C(=O)N(c2ccc(Br)cc2)C1=O (stereo not drawn)
> 100 µM: TGI (786-0 renal) | TGI (A549 NSCLC) | TGI (ACHN renal) | TGI (BT-549 breast) | TGI (CAKI-1 renal) | TGI (CCRF-CEM leukemia) | TGI (COLO 205 colon) | TGI (DU-145 prostate) | TGI (EKVX NSCLC) | TGI (HCC-2998 colon) | TGI (HCT-116 colon) | TGI (HCT-15 colon) | TGI (HL-60(TB) leukemia) | TGI (HOP-62 NSCLC) | TGI (HOP-92 NSCLC) | TGI (HS 578T breast) | TGI (HT29 colon) | TGI (IGROV1 ovarian) | TGI (KM12 colon) | TGI (LOX IMVI melanoma) | TGI (M14 melanoma) | TGI (MCF7 breast) | TGI (MDA-MB-231 breast) | TGI (MDA-MB-435) | TGI (MDA-N) | TGI (MOLT-4 leukemia) | TGI (NCI-H226 lung) | TGI (NCI-H23 lung) | TGI (NCI-H460 lung) | TGI (NCI-H522 lung) | TGI (NCI/ADR-RES ovarian) | TGI (OVCAR-3 ovarian) | TGI (OVCAR-4 ovarian) | TGI (OVCAR-5 ovarian) | TGI (OVCAR-8 ovarian) | TGI (PC-3 prostate) | TGI (RXF 393 renal) | TGI (SF-268 CNS) | TGI (SF-295 CNS) | TGI (SF-539 CNS) | TGI (SK-MEL-2 melanoma) | TGI (SK-MEL-28 melanoma) | TGI (SK-MEL-5 melanoma) | TGI (SK-OV-3 ovarian) | TGI (SN12C renal) | TGI (SNB-19 CNS) | TGI (SNB-75 CNS) | TGI (SW-620 colon) | TGI (TK-10 renal) | TGI (U251 CNS) | TGI (UACC-257 melanoma) | TGI (UACC-62 melanoma) | TGI (UO-31 renal)

Cc1ccc(Nc2cn(COCc3ccccc3)c(=O)[nH]c2=O)cc1
82 µM: TGI (BT-549 breast)
> 100 µM: TGI (786-0 renal) | TGI (A498 renal) | TGI (A549 NSCLC) | TGI (ACHN renal) | TGI (CAKI-1 renal) | TGI (CCRF-CEM leukemia) | TGI (COLO 205 colon) | TGI (DU-145 prostate) | TGI (EKVX NSCLC) | TGI (HCC-2998 colon) | TGI (HCT-116 colon) | TGI (HCT-15 colon) | TGI (HL-60(TB) leukemia) | TGI (HOP-62 NSCLC) | TGI (HOP-92 NSCLC) | TGI (HS 578T breast) | TGI (HT29 colon) | TGI (IGROV1 ovarian) | TGI (K-562 leukemia) | TGI (KM12 colon) | TGI (LOX IMVI melanoma) | TGI (M14 melanoma) | TGI (MCF7 breast) | TGI (MDA-MB-435) | TGI (MDA-N) | TGI (MOLT-4 leukemia) | TGI (NCI-H226 lung) | TGI (NCI-H23 lung) | TGI (NCI-H460 lung) | TGI (NCI/ADR-RES ovarian) | TGI (OVCAR-3 ovarian) | TGI (OVCAR-4 ovarian) | TGI (OVCAR-5 ovarian) | TGI (PC-3 prostate) | TGI (RPMI-8226 leukemia) | TGI (RXF 393 renal) | TGI (SF-268 CNS) | TGI (SF-295 CNS) | TGI (SK-MEL-28 melanoma) | TGI (SK-MEL-5 melanoma) | TGI (SN12C renal) | TGI (SNB-19 CNS) | TGI (SR leukemia) | TGI (SW-620 colon) | TGI (U251 CNS) | TGI (UACC-257 melanoma) | TGI (UACC-62 melanoma) | TGI (UO-31 renal)

Cn1c(=O)sc2cc(C(=S)N3CCN(c4ccccc4)CC3)ccc21
42.8 µM: TGI (HOP-62 NSCLC)
> 100 µM: TGI (786-0 renal) | TGI (A498 renal) | TGI (ACHN renal) | TGI (BT-549 breast) | TGI (CAKI-1 renal) | TGI (CCRF-CEM leukemia) | TGI (COLO 205 colon) | TGI (DU-145 prostate) | TGI (EKVX NSCLC) | TGI (HCT-116 colon) | TGI (HCT-15 colon) | TGI (HL-60(TB) leukemia) | TGI (HS 578T breast) | TGI (HT29 colon) | TGI (IGROV1 ovarian) | TGI (K-562 leukemia) | TGI (KM12 colon) | TGI (LOX IMVI melanoma) | TGI (M14 melanoma) | TGI (MALME-3M melanoma) | TGI (MCF7 breast) | TGI (MDA-MB-231 breast) | TGI (MDA-MB-435) | TGI (MDA-N) | TGI (MOLT-4 leukemia) | TGI (NCI-H226 lung) | TGI (NCI-H23 lung) | TGI (NCI-H460 lung) | TGI (NCI/ADR-RES ovarian) | TGI (OVCAR-3 ovarian) | TGI (OVCAR-5 ovarian) | TGI (OVCAR-8 ovarian) | TGI (PC-3 prostate) | TGI (RPMI-8226 leukemia) | TGI (RXF 393 renal) | TGI (SF-268 CNS) | TGI (SK-MEL-2 melanoma) | TGI (SK-MEL-28 melanoma) | TGI (SK-MEL-5 melanoma) | TGI (SK-OV-3 ovarian) | TGI (SN12C renal) | TGI (SNB-19 CNS) | TGI (SR leukemia) | TGI (SW-620 colon) | TGI (TK-10 renal) | TGI (UACC-257 melanoma) | TGI (UACC-62 melanoma)
61.4 µM: TGI (SF-539 CNS)
35.1 µM: TGI (U251 CNS)
80.6 µM: TGI (SNB-75 CNS)
53.9 µM: TGI (SF-295 CNS)

COc1ccc(C=C2C(=O)NC(=O)NC2=O)cc1OCc1ccccc1
32.7 µg/mL: TGI (MDA-N)
82.5 µg/mL: TGI (M14 melanoma)
43.2 µg/mL: TGI (BT-549 breast)
79.4 µg/mL: TGI (SK-MEL-2 melanoma)
39.3 µg/mL: TGI (OVCAR-3 ovarian)
48.8 µg/mL: TGI (RPMI-8226 leukemia)
inactive: GI50 (786-0 renal) 52.9 µg/mL (≈ 150 µM) | GI50 (ACHN renal) 36.9 µg/mL (≈ 105 µM) | GI50 (BT-549 breast) 16.8 µg/mL (≈ 47.8 µM) | GI50 (EKVX NSCLC) 85.2 µg/mL (≈ 242 µM) | GI50 (HCT-116 colon) 40.5 µg/mL (≈ 115 µM) | GI50 (HCT-15 colon) 30.8 µg/mL (≈ 87.5 µM) | GI50 (HOP-62 NSCLC) 36.9 µg/mL (≈ 105 µM) | GI50 (HOP-92 NSCLC) 57.2 µg/mL (≈ 162 µM) | GI50 (HS 578T breast) 27.1 µg/mL (≈ 77 µM) | GI50 (HT29 colon) 31.7 µg/mL (≈ 89.9 µM) | GI50 (IGROV1 ovarian) 27.1 µg/mL (≈ 76.8 µM) | GI50 (K-562 leukemia) 30.8 µg/mL (≈ 87.3 µM) | GI50 (KM12 colon) 33 µg/mL (≈ 93.6 µM) | GI50 (LOX IMVI melanoma) 52.5 µg/mL (≈ 149 µM) | GI50 (M14 melanoma) 28.1 µg/mL (≈ 79.7 µM) | GI50 (MALME-3M melanoma) 54.5 µg/mL (≈ 155 µM) | GI50 (MCF7 breast) 59.6 µg/mL (≈ 169 µM) | GI50 (MDA-MB-231 breast) 31.4 µg/mL (≈ 89.2 µM) | GI50 (MDA-MB-435) 20.2 µg/mL (≈ 57.3 µM) | GI50 (MDA-N) 14.8 µg/mL (≈ 41.9 µM) | GI50 (NCI-H226 lung) 49.1 µg/mL (≈ 139 µM) | GI50 (NCI-H23 lung) 31.7 µg/mL (≈ 90 µM) | GI50 (NCI/ADR-RES ovarian) 39.4 µg/mL (≈ 112 µM) | GI50 (OVCAR-3 ovarian) 17 µg/mL (≈ 48.4 µM) | GI50 (OVCAR-4 ovarian) 35.6 µg/mL (≈ 101 µM) | GI50 (OVCAR-8 ovarian) 57.3 µg/mL (≈ 163 µM) | GI50 (PC-3 prostate) 46.7 µg/mL (≈ 132 µM) | GI50 (RPMI-8226 leukemia) 17.8 µg/mL (≈ 50.6 µM) | GI50 (RXF 393 renal) 12 µg/mL (≈ 34.2 µM) | GI50 (SF-268 CNS) 29.2 µg/mL (≈ 83 µM) | GI50 (SF-295 CNS) 32.5 µg/mL (≈ 92.2 µM) | GI50 (SF-539 CNS) 20.3 µg/mL (≈ 57.5 µM) | GI50 (SK-MEL-2 melanoma) 25.6 µg/mL (≈ 72.6 µM) | GI50 (SK-MEL-28 melanoma) 65.7 µg/mL (≈ 186 µM) | GI50 (SK-MEL-5 melanoma) 49 µg/mL (≈ 139 µM) | GI50 (SN12C renal) 47.6 µg/mL (≈ 135 µM) | GI50 (SNB-19 CNS) 23.3 µg/mL (≈ 66.2 µM) | GI50 (SNB-75 CNS) 22.9 µg/mL (≈ 65.1 µM) | GI50 (SW-620 colon) 50.7 µg/mL (≈ 144 µM) | GI50 (U251 CNS) 31.2 µg/mL (≈ 88.7 µM) | GI50 (UO-31 renal) 33 µg/mL (≈ 93.6 µM)
56.1 µg/mL: TGI (MDA-MB-435)
47.4 µg/mL: TGI (SF-539 CNS)
